The text below walks through data of PMC10952897, “The Role of Cytochrome P450 AbyV in the Final Stages of Abyssomicin C Biosynthesis” (Angewandte Chemie (Weinheim an Der Bergstrasse, Germany), 2022).

For the assay, the target named is T1, AbyV (Micromonospora maris, UniProt F4F6Q5).
T1 construct: N-terminal His6 tag (pOPINF::abyV), E. coli BL21(DE3)
Put plainly: titration of substrate into buffered AbyV solution. It counts as binding.

In general, Kd refers to the constant that tells how readily two partners part at equilibrium. Higher therefore signals weaker binding.

T1 sequence (F4F6Q5 entry or part of it): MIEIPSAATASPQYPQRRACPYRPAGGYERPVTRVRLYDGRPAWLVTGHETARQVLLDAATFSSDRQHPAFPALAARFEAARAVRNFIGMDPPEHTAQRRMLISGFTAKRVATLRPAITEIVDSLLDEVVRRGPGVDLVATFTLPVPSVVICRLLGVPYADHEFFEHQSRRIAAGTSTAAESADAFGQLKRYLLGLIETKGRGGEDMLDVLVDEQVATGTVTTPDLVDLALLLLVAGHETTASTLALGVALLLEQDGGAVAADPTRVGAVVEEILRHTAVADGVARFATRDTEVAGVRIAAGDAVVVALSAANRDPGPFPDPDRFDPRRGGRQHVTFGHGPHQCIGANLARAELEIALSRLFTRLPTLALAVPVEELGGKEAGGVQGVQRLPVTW

On to `C[C@@H]1C[C@H](C)C(=O)/C=C/[C@@H]2C=C[C@H](C)C[C@@]23OC(=O)C(=C3O)C1=O` (mixture of isomers) [compound 3, spirotetronate 3], for which binding was characterised by a dissociation constant (Kd) of 34 ± 7 µM.
